Measured values: PubChem BioAssay (NCI)
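How tested: cells in 96-well plates exposed to compound for 48 hours at five concentrations. GI50: concentration for 50% inhibition of growth. At the TGI there is no net growth.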

Tests used:
Test in all cases: growth of human tumour cells (NCI), 48 h
786-0 renal = system: 786-0 renal
A498 renal = system: A498 renal
A549 NSCLC = system: A549 NSCLC
ACHN renal = system: ACHN renal
BT-549 breast = system: BT-549 breast
CAKI-1 renal = system: CAKI-1 renal
CCRF-CEM leukemia = system: CCRF-CEM leukemia
COLO 205 colon = system: COLO 205 colon
DU-145 prostate = system: DU-145 prostate
HCC-2998 colon = system: HCC-2998 colon
HCT-116 colon = system: HCT-116 colon
HCT-15 colon = system: HCT-15 colon
HL-60(TB) leukemia = system: HL-60(TB) leukemia
HOP-62 NSCLC = system: HOP-62 NSCLC
HOP-92 NSCLC = system: HOP-92 NSCLC
HS 578T breast = system: HS 578T breast
HT29 colon = system: HT29 colon
IGROV1 ovarian = system: IGROV1 ovarian
K-562 leukemia = system: K-562 leukemia
KM12 colon = system: KM12 colon
LOX IMVI melanoma = system: LOX IMVI melanoma
M14 melanoma = system: M14 melanoma
MALME-3M melanoma = system: MALME-3M melanoma
MCF7 breast = system: MCF7 breast
MDA-MB-231 breast = system: MDA-MB-231 breast
MDA-MB-435 = system: MDA-MB-435
MOLT-4 leukemia = system: MOLT-4 leukemia
NCI-H226 lung = system: NCI-H226 lung
NCI-H23 lung = system: NCI-H23 lung
NCI-H460 lung = system: NCI-H460 lung
NCI-H522 lung = system: NCI-H522 lung
NCI/ADR-RES ovarian = system: NCI/ADR-RES ovarian
OVCAR-3 ovarian = system: OVCAR-3 ovarian
OVCAR-4 ovarian = system: OVCAR-4 ovarian
OVCAR-5 ovarian = system: OVCAR-5 ovarian
OVCAR-8 ovarian = system: OVCAR-8 ovarian
PC-3 prostate = system: PC-3 prostate
RPMI-8226 leukemia = system: RPMI-8226 leukemia
RXF 393 renal = system: RXF 393 renal
SF-268 CNS = system: SF-268 CNS
SF-295 CNS = system: SF-295 CNS
SF-539 CNS = system: SF-539 CNS
SK-MEL-2 melanoma = system: SK-MEL-2 melanoma
SK-MEL-28 melanoma = system: SK-MEL-28 melanoma
SK-MEL-5 melanoma = system: SK-MEL-5 melanoma
SK-OV-3 ovarian = system: SK-OV-3 ovarian
SN12C renal = system: SN12C renal
SNB-19 CNS = system: SNB-19 CNS
SNB-75 CNS = system: SNB-75 CNS
SR leukemia = system: SR leukemia
SW-620 colon = system: SW-620 colon
T-47D breast = system: T-47D breast
TK-10 renal = system: TK-10 renal
U251 CNS = system: U251 CNS
UACC-257 melanoma = system: UACC-257 melanoma
UACC-62 melanoma = system: UACC-62 melanoma
UO-31 renal = system: UO-31 renal
EKVX NSCLC = system: EKVX NSCLC

## O=C(Nc1cccc(-c2cccc(F)c2)c1)C1CCN(Cc2cccc3cccnc23)CC1
786-0 renal
  GI50: 1.58 µM
  TGI: 3.02 µM
A498 renal
  GI50: 2.06 µM
  TGI: 7.09 µM
A549 NSCLC
  GI50: 3.47 µM
  TGI: 13 µM
ACHN renal
  GI50: 2.28 µM
  TGI: 5.67 µM
BT-549 breast
  GI50: 1.79 µM
  TGI: 3.3 µM
CAKI-1 renal
  GI50: 1.96 µM
  TGI: 4.07 µM
CCRF-CEM leukemia
  GI50: 2.67 µM
  TGI: 11.2 µM
COLO 205 colon
  GI50: 1.62 µM
  TGI: 3.29 µM
DU-145 prostate
  GI50: 4.36 µM
  TGI: 15.6 µM
HCC-2998 colon
  GI50: 1.77 µM
  TGI: 3.29 µM
HCT-116 colon
  GI50: 1.71 µM
  TGI: 3.08 µM
HCT-15 colon
  GI50: 1.79 µM
  TGI: 5.16 µM
HL-60(TB) leukemia
  GI50: 1.94 µM
  TGI: 4.2 µM
HOP-62 NSCLC
  GI50: 3.78 µM
  TGI: 15.7 µM
HOP-92 NSCLC
  GI50: 2.03 µM
  TGI: 7.22 µM
HS 578T breast
  GI50: 1.91 µM
  TGI: 4.55 µM
HT29 colon
  GI50: 1.51 µM
  TGI: 3.17 µM
IGROV1 ovarian
  GI50: 2.1 µM
  TGI: 4.74 µM
K-562 leukemia
  GI50: 1.52 µM
  TGI: 3.87 µM
KM12 colon
  GI50: 3.16 µM
  TGI: 10.3 µM
LOX IMVI melanoma
  GI50: 1.59 µM
  TGI: 3.12 µM
M14 melanoma
  GI50: 1.75 µM
  TGI: 3.3 µM
MALME-3M melanoma
  GI50: 1.65 µM
  TGI: 3.28 µM
MCF7 breast
  GI50: 1.8 µM
  TGI: 4.16 µM
MDA-MB-231 breast
  GI50: 1.9 µM
  TGI: 3.99 µM
MDA-MB-435
  GI50: 1.69 µM
  TGI: 3.19 µM
MOLT-4 leukemia
  GI50: 1.66 µM
  TGI: 4.77 µM
NCI-H226 lung
  GI50: 3.15 µM
  TGI: 17.2 µM
NCI-H23 lung
  GI50: 3.16 µM
  TGI: 13 µM
NCI-H460 lung
  GI50: 1.92 µM
  TGI: 3.77 µM
NCI-H522 lung
  GI50: 2.16 µM
  TGI: 5.1 µM
NCI/ADR-RES ovarian
  GI50: 2.76 µM
  TGI: 10.2 µM
OVCAR-3 ovarian
  GI50: 3.51 µM
  TGI: 13.2 µM
OVCAR-4 ovarian
  GI50: 3.57 µM
  TGI: 14.1 µM
OVCAR-5 ovarian
  GI50: 2.93 µM
  TGI: 11.8 µM
OVCAR-8 ovarian
  GI50: 3.53 µM
  TGI: 13.8 µM
PC-3 prostate
  GI50: 2.21 µM
  TGI: 7.09 µM
RPMI-8226 leukemia
  GI50: 1.95 µM
  TGI: 4.49 µM
RXF 393 renal
  GI50: 1.57 µM
  TGI: 3.47 µM
SF-268 CNS
  GI50: 4.05 µM
  TGI: 16.1 µM
SF-295 CNS
  GI50: 1.8 µM
  TGI: 3.6 µM
SF-539 CNS
  GI50: 1.8 µM
  TGI: 3.56 µM
SK-MEL-2 melanoma
  GI50: 2.03 µM
  TGI: 4.29 µM
SK-MEL-28 melanoma
  GI50: 1.82 µM
  TGI: 3.57 µM
SK-MEL-5 melanoma
  GI50: 1.64 µM
  TGI: 3.06 µM
SK-OV-3 ovarian
  GI50: 4.67 µM
  TGI: 16.9 µM
SN12C renal
  GI50: 1.97 µM
  TGI: 4.83 µM
SNB-19 CNS
  GI50: 2 µM
  TGI: 4.83 µM
SNB-75 CNS
  GI50: 2.4 µM
  TGI: 11.7 µM
SR leukemia
  GI50: 1.66 µM
  TGI: 4.46 µM
SW-620 colon
  GI50: 1.71 µM
  TGI: 3.57 µM
T-47D breast
  GI50: 2 µM
  TGI: 5.83 µM
TK-10 renal
  GI50: 4.3 µM
  TGI: 16.7 µM
U251 CNS
  GI50: 1.85 µM
  TGI: 3.73 µM
UACC-257 melanoma
  GI50: 1.83 µM
  TGI: 3.75 µM
UACC-62 melanoma
  GI50: 1.73 µM
  TGI: 3.28 µM
UO-31 renal
  GI50: 1.73 µM
  TGI: 4.11 µM

## C[N+](C)=C/C=C(\Cl)c1ccc2ccccc2c1
786-0 renal
  TGI: 28.9 µM
A498 renal
  TGI: > 100 µM
A549 NSCLC
  TGI: > 100 µM
ACHN renal
  TGI: 28.5 µM
BT-549 breast
  TGI: 38.6 µM
CAKI-1 renal
  TGI: 25 µM
COLO 205 colon
  TGI: 41.4 µM
DU-145 prostate
  TGI: 28.8 µM
EKVX NSCLC
  TGI: 60.1 µM
HCC-2998 colon
  TGI: 20.7 µM
HCT-116 colon
  TGI: 9.79 µM
HCT-15 colon
  TGI: 11.2 µM
HL-60(TB) leukemia
  TGI: 38.5 µM
HOP-62 NSCLC
  TGI: 35 µM
HOP-92 NSCLC
  TGI: 53.3 µM
HS 578T breast
  TGI: > 100 µM
HT29 colon
  TGI: 28.4 µM
IGROV1 ovarian
  TGI: 34.9 µM
K-562 leukemia
  TGI: > 33.2 µM
KM12 colon
  TGI: 32.3 µM
LOX IMVI melanoma
  TGI: 12.8 µM
M14 melanoma
  TGI: 23.2 µM
MALME-3M melanoma
  TGI: 27.8 µM
MCF7 breast
  TGI: > 73.4 µM
MDA-MB-231 breast
  TGI: 28.8 µM
MDA-MB-435
  TGI: 36 µM
MOLT-4 leukemia
  TGI: 3.67 µM
NCI-H226 lung
  TGI: 41.4 µM
NCI-H23 lung
  TGI: 17.1 µM
NCI-H460 lung
  TGI: 57.6 µM
NCI-H522 lung
  TGI: 67.8 µM
NCI/ADR-RES ovarian
  TGI: 17.3 µM
OVCAR-3 ovarian
  TGI: 13.4 µM
OVCAR-4 ovarian
  TGI: 11.6 µM
OVCAR-5 ovarian
  TGI: 39.8 µM
OVCAR-8 ovarian
  TGI: 31.6 µM
PC-3 prostate
  TGI: 43.5 µM
RPMI-8226 leukemia
  TGI: 14.6 µM
RXF 393 renal
  TGI: 47.9 µM
SF-268 CNS
  TGI: 67 µM
SF-295 CNS
  TGI: 33.8 µM
SF-539 CNS
  TGI: 58.7 µM
SK-MEL-2 melanoma
  TGI: 59.9 µM
SK-MEL-28 melanoma
  TGI: 11.1 µM
SK-MEL-5 melanoma
  TGI: 36.5 µM
SK-OV-3 ovarian
  TGI: 38.2 µM
SN12C renal
  TGI: 50 µM
SNB-19 CNS
  TGI: 38.5 µM
SNB-75 CNS
  TGI: > 58.2 µM
SR leukemia
  TGI: 4.26 µM
SW-620 colon
  TGI: 29.2 µM
T-47D breast
  TGI: 48.3 µM
TK-10 renal
  TGI: 33.4 µM
U251 CNS
  TGI: 27.8 µM
UACC-257 melanoma
  TGI: 36.8 µM
UACC-62 melanoma
  TGI: 29.9 µM
UO-31 renal
  TGI: 32.6 µM
